These are literature values, as cited in US9492404B2, “Compositions and methods for treatment of taupathy” (Revalesio Corporation, priority 2010, dated 2016).

The test system of the series is primary progressive MS. To be noted: 943 patients with primary progressive MS.

For the substance Glatiramer acetate, the “progression of disability and the disease” value is “failed to halt”.
